Measurements taken from PMC4170656 (Developmental cell, 2014).
Where a chain is given by its changes, count along the chain named.

Experiments:
Type in all cases: binding
[1] = molecular target: T1, His:ARD (ankyrin repeat domain of AKR2A) (Arabidopsis thaliana, UniProt Q9SAR5, N314A); assay: SPR sensorgrams, lipid vesicles on L1 chip; settings: POPG/POPC (50:50) vesicles; pH 7.4, 0.16 M NaCl, 23°C; L3 site
T1 sequence (Q9SAR5 211-342 N314A): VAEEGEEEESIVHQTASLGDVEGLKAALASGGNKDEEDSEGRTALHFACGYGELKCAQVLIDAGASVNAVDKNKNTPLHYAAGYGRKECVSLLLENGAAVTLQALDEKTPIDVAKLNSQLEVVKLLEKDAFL

[2] = molecular target: T2, His:ARD (ankyrin repeat domain of AKR2A) (Arabidopsis thaliana, UniProt Q9SAR5, E246A); assay: SPR sensorgrams, lipid vesicles on L1 chip; settings: POPG/POPC (50:50) vesicles; pH 7.4, 0.16 M NaCl, 23°C; L1 site
T2 sequence (Q9SAR5 211-342 E246A): T1 sequence (Q9SAR5 211-342 N314A) with E36A, A104N

[3] = molecular target: T3, His:ARD (ankyrin repeat domain of AKR2A) (Arabidopsis thaliana, UniProt Q9SAR5, Y294A); assay: SPR sensorgrams, lipid vesicles on L1 chip; settings: POPG/POPC (50:50) vesicles; pH 7.4, 0.16 M NaCl, 23°C; L2 site
T3 sequence (Q9SAR5 211-342 Y294A): T1 sequence (Q9SAR5 211-342 N314A) with Y84A, A104N

[4] = molecular target: T4, His:ARD (ankyrin repeat domain of AKR2A) (Arabidopsis thaliana, UniProt Q9SAR5, L315A); assay: SPR sensorgrams, lipid vesicles on L1 chip; settings: POPG/POPC (50:50) vesicles; pH 7.4, 0.16 M NaCl, 23°C; L3 site
T4 sequence (Q9SAR5 211-342 L315A): T1 sequence (Q9SAR5 211-342 N314A) with A104N, L105A

[5] = molecular target: T5, His:ARD (ankyrin repeat domain of AKR2A) (Arabidopsis thaliana, UniProt Q9SAR5, H223A); assay: SPR sensorgrams, lipid vesicles on L1 chip; settings: POPG/POPC (50:50) vesicles; pH 7.4, 0.16 M NaCl, 23°C; L1 site
T5 sequence (Q9SAR5 211-342 H223A): T1 sequence (Q9SAR5 211-342 N314A) with H13A, A104N

[6] = molecular target: T6, His:AKR2A (full-length AKR2A) (Arabidopsis thaliana, UniProt Q9SAR5); assay: SPR, lipid vesicles on L1 chip; settings: POPG/POPC/MGDG [50:(50−x):x] vesicles; pH 7.4, 0.16 M NaCl, 23°C
T6 sequence (Q9SAR5 1-342): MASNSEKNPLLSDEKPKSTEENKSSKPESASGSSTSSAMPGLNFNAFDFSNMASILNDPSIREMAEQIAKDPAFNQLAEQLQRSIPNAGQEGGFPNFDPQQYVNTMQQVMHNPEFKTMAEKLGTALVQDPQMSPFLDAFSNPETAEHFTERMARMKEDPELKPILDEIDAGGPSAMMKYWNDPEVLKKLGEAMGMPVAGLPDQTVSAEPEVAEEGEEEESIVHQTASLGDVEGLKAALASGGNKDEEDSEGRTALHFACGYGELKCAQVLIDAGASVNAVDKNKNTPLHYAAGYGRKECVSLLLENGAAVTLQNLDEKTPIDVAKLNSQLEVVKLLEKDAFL

[7] = molecular target: T7, His:ARD (ankyrin repeat domain of AKR2A) (Arabidopsis thaliana, UniProt Q9SAR5, R296A); assay: SPR sensorgrams, lipid vesicles on L1 chip; settings: POPG/POPC (50:50) vesicles; pH 7.4, 0.16 M NaCl, 23°C; L2 site
T7 sequence (Q9SAR5 211-342 R296A): T1 sequence (Q9SAR5 211-342 N314A) with R86A, A104N

SMILES: CCCCCCCC/C=C\CCCCCCCC(=O)O[C@H](COC(=O)CCCCCCCCCCCCCCC)COP(=O)(O)OCC(O)CO (stereo partly shown) [POPG]
- SPR sensorgrams, lipid vesicles on L1 chip [1]: the L3 site mutants (N314A and L315A) showed only modestly reduced binding
- SPR sensorgrams, lipid vesicles on L1 chip [2]: The L1 site mutants H223A and E246A also had a significantly lower binding affinity
- SPR sensorgrams, lipid vesicles on L1 chip [3]: the L2 site mutants (Y294A and R296A) showed significantly lower binding than WT
- SPR sensorgrams, lipid vesicles on L1 chip [4]: the L3 site mutants (N314A and L315A) showed only modestly reduced binding
- SPR sensorgrams, lipid vesicles on L1 chip [5]: The L1 site mutants H223A and E246A also had a significantly lower binding affinity
- SPR, lipid vesicles on L1 chip [6]: MGDG-dependent vesicle binding of full-length (FL) AKR2A (red) and ARD (blue)
- SPR sensorgrams, lipid vesicles on L1 chip [7]: the L2 site mutants (Y294A and R296A) showed significantly lower binding than WT
